Test results as given in article PMC3362575, “Synthesis and Biological Evaluation of Phenanthrenes as Cytotoxic Agents with Pharmacophore Modeling and ChemGPS-NP Prediction as Topo II Inhibitors” (PLoS ONE, 2012).
Converted amounts (≈) assume the structure as drawn.

Experiments:
Format in all cases: cell-based, human
[1] = tested on: Ca9-22; assay: MTT cytotoxicity assay, Ca9-22; settings: Homo sapiens
Protocol: (§1) The cytotoxic assay of 11 naturally occurring and 19 synthesized phenanthrenes was carried out on a diverse set of human liver (HepG2 and Hep3B), oral (Ca9-22), lung (A549) and breast (MEA-MB-231 and MCF7) cancer cell lines, and a human fetal lung fibroblast (MRC-5) cell line (Tables 1 and 2).
(§2) Compounds were tested against human liver (HepG2 and Hep3B), oral (Ca9-22), lung (A549), breast (MEA-MB-231 and MCF7) cancer cell lines, and the human fetal lung fibroblast (MRC-5) cell line using an established colorimetric MTT assay protocol. The absorbance was measured at 550 nm using a microplate reader. The IC50 is the concentration of agent that reduced cell growth by 50% under the experimental conditions.

[2] = tested on: A549; assay: MTT cytotoxicity assay, A549; settings: Homo sapiens
Protocol: as §1, §2

[3] = tested on: MDA-MB-231; assay: MTT cytotoxicity assay, MDA-MB-231; settings: Homo sapiens
Protocol: as §1, §2

[4] = tested on: Hep3B; assay: MTT cytotoxicity assay, Hep3B; settings: Homo sapiens, Hep3B
Protocol: as §1, §2

[5] = tested on: MCF-7; assay: MTT cytotoxicity assay, MCF-7; settings: Homo sapiens; for IC50: MTT; for MCF-7 activity class (from IC50): MCF7, Table S3, read-out: Scale Exptl. (MCF-7 activity class)
Protocol: as §1, §2
The pharmacophore modeling with Catalyst HypoGen was performed via Discovery Studio 2.1 (Accelrys, San Diego, CA, USA). Twenty-nine phenanthrene derivatives were collected from the natural plant, C. arisanensis, and from chemical synthesis (Figure 2). Cytotoxicity against MCF-7 cells was determined by the MTT assay and the concentration (µg/mL) of test compound which inhibited 50% of the cancer cells (IC50) was used in the generation of the pharmacophore model. An IC50 value of >20 µg/mL was defined as 20 µg/mL. All experimental IC50 values spanned about 2–3 orders of magnitude from 0.09 to 20 µg/mL. The 2D/3D structures of compounds were generated using ChemBioOffice 2008 (Cambridge Scientic Computing, Cambridge, Massachusetts, USA) and then optimized in a Dreiding force field. The conformational ensemble of each compound was generated using the best conformational analysis method based on a CHARMM force field with a 20 kcal/mol energy threshold above the global minimum. A maximum limit of 255 conformations was used to cover maximum conformational space. The best 3D arrangements of chemical functionalities should explain the activity variations among the 29 compounds. Thirty runs with different parameters were performed for the best pharmacophore hypothesis. Four chemical features, including hydrogen-bond acceptor (HBA), hydrogen-bond donor (HBD), hydrophobic (HYD), and aromatic ring (AR) features, were also tested during the building of pharmacophore hypotheses (Table S1; Text S1). The best hypotheses were selected via a correlation and a cost analysis in Catalyst HypoGen.

[6] = tested on: MRC-5; assay: MTT cytotoxicity assay, MRC-5 fetal lung fibroblast; settings: Homo sapiens, normal fetal lung fibroblast
Protocol: as §1, §2

[7] = tested on: HepG2; assay: MTT cytotoxicity assay, HepG2; settings: Homo sapiens
Protocol: as §1, §2

[8] = Ca9-22, Table 2, synthesized phenanthrenes
[9] = A549, Table 2, synthesized phenanthrenes
[10] = MDA-MB-231, Table 2, synthesized phenanthrenes
[11] = Table 2, synthesized phenanthrenes
[12] = MCF7, Table 2, synthesized phenanthrenes
[13] = MRC5, Table 2, synthesized phenanthrenes
[14] = HepG2, Table 2, synthesized phenanthrenes
[15] = Ca9-22, Table 1, natural phenanthrenes
[16] = A549, Table 1, natural phenanthrenes
[17] = MDA-MB-231, Table 1, natural phenanthrenes
[18] = MCF7, Table 1, natural phenanthrenes
[19] = MRC5, Table 1, natural phenanthrenes
[20] = HepG2, Table 1, natural phenanthrenes

Compound | IC50 [1, 8] [mg/L] | IC50 [2, 9] [mg/L] | IC50 [3, 10] [mg/L] | IC50 [4, 11] [mg/L] | IC50 [5, 12] [mg/L] | MCF-7 activity class (from IC50) [5] [mg/L] | IC50 [6, 13] [mg/L] | IC50 [7, 14] [mg/L] | IC50 [1, 15] [mg/L] | IC50 [2, 16] [mg/L] | IC50 [3, 17] [mg/L] | IC50 ([4]; Table 1, natural phenanthrenes) [mg/L] | IC50 [5, 18] [mg/L] | IC50 [6, 19] [mg/L] | IC50 [7, 20] [mg/L]
COc1cc2ccc3c(OC)ccc(OC)c3c2c(OC)c1OC [Compound 3a, 1,4,5,6,7-Pentamethoxy-phenanthrene] | > 20 | > 20 | > 20 | 15.55 ± 0.08 (≈ 47.4 µM) | > 20 | > 20 | > 20 | > 20 |  |  |  |  |  |  | 
COc1cc2ccc3c(OC)ccc(OC)c3c2c(O)c1OC [Compound 9a, 5-hydroxy-1,4,6,7-tetramethoxy-phenanthrene] | > 20 | > 20 | > 20 | > 20 | > 20 | > 20 | > 20 | > 20 |  |  |  |  |  |  | 
COc1cc(OC)c2c(ccc3c(OC)ccc(O)c32)c1 [Compound 8b, 4-Hydroxy-1,5,7-trimethoxy-phenanthrene] | 12.1 ± 0.37 (≈ 42.5 µM) | 19.6 ± 0.22 (≈ 68.9 µM) | > 20 | 6.93 ± 0.19 (≈ 24.4 µM) | 19.31 ± 0.08 (≈ 67.9 µM) | 1 to 20 | > 20 | 10.1 ± 0.66 (≈ 35.5 µM) |  |  |  |  |  |  | 
COC1=CC(=O)c2ccc3c(-c4c(OC)c(OC)c(OC)c5c6c(ccc45)C(=O)C=C(OC)C6=O)c(OC)c(OC)c(OC)c3c2C1=O [Compound 5d, 3,5,6,7,3′,5′,6,7′-Octamethoxy-[8,8′]bi-1,4,1′,4′-phenanthrenequinone] | 4.36 ± 0.03 (≈ 6.66 µM) | 9.3 ± 0.48 (≈ 14.2 µM) | 14.8 ± 0.25 (≈ 22.5 µM) | 6.66 ± 0.13 (≈ 10.2 µM) | 13.78 ± 0.06 (≈ 21.1 µM) | 1 to 20 | > 20 | 1.49 ± 0.01 (≈ 2.28 µM) |  |  |  |  |  |  | 
COc1cc2ccc3c(c2c(OC)c1OC)C(=O)C=CC3=O [Compound 4a, 5,6,7-Trimethoxy-1,4-phenanthrenequinone] | 2.17 ± 0.01 (≈ 7.27 µM) | 15.94 ± 0.01 (≈ 53.4 µM) | 4.6 ± 0.06 (≈ 15.4 µM) | 7.33 ± 0.03 (≈ 24.6 µM) | 13.2 ± 0.38 (≈ 44.2 µM) | 1 to 20 | 11.9 ± 0.12 (≈ 40 µM) | 15.68 ± 0.01 (≈ 52.6 µM) |  |  |  |  |  |  | 
COc1cccc2c1C(=O)c1c(O)c3c(c(O)c1C2=O)C[C@@](O)(C(=O)CO)C[C@@H]3O[C@H]1C[C@H](N)[C@H](O)[C@H](C)O1 [Doxo, Doxorubicin, reference compound] | 0.14 ± 0.04 (≈ 0.258 µM) | 0.63 ± 0.15 (≈ 1.16 µM) | 1.12 ± 0.05 (≈ 2.06 µM) | 0.42 ± 0.01 (≈ 0.773 µM) | 0.35 ± 0.09 (≈ 0.644 µM) |  |  |  | 0.16 ± 0.02 (≈ 0.294 µM) | 0.81 ± 0.04 (≈ 1.49 µM) | 0.74 ± 0.01 (≈ 1.36 µM) | 0.49 (≈ 0.902 µM) | 0.67 ± 0.03 (≈ 1.23 µM) | 1.94 ± 0.02 (≈ 3.57 µM) | 0.22 ± 0.04 (≈ 0.405 µM)
COc1cc(OC)c2c(ccc3c(OC)ccc(OC)c32)c1 [Compound 3b, 1,4,5,7-Tetramethoxy-phenanthrene] | 18.44 ± 0.11 (≈ 61.8 µM) | > 20 | > 20 | > 20 | > 20 | > 20 | > 20 | > 20 |  |  |  |  |  |  | 
COc1cc2c(c(OC)c1O)-c1c(O)ccc(O)c1CC2 [CA-4] |  |  |  |  |  | 1 to 20 |  |  | 15.12 ± 0.14 (≈ 52.4 µM) | > 20 | 19.8 ± 0.45 (≈ 68.8 µM) | 11.1 ± 0.73 (≈ 38.3 µM) | 14.3 ± 0.18 (≈ 49.6 µM) | > 20 | > 20
COc1cc(O)c2c(c1)CCc1ccc(O)c(OC)c1-2 [CA-7] |  |  |  |  |  | 1 to 20 |  |  | > 20 | > 20 | > 20 | > 20 | 14.6 ± 0.34 (≈ 53.7 µM) | > 20 | > 20
COC1=CC(=O)c2ccc3cc(OC)c(O)c(OC)c3c2C1=O [CA-2, calanquinone B] |  |  |  |  |  | 1 to 20 |  |  | 14.64 ± 0.11 (≈ 46.6 µM) | 18.5 ± 0.29 (≈ 58.9 µM) | > 20 | 11.9 ± 0.55 (≈ 38 µM) | 11.9 ± 0.08 (≈ 37.9 µM) | > 20 | 14.5 ± 0.43 (≈ 46 µM)
COc1cc2ccc3cccc(O)c3c2c(OC)c1O [CA-8] |  |  |  |  |  | > 20 |  |  | > 20 | > 20 | > 20 | > 20 | > 20 | > 20 | > 20
